Assay results taken from article PMC8892843 (The Science of the total environment, 2021).

Assays:
[1] = molecular target: nicotinic receptor (nAChR) found in H. azteca; experiment: competitive [3H]imidacloprid displacement, filtration; type: binding, Hyalella azteca; conditions: 1 nM [3H]IMI, pH 7.0, 20 °C, crude microsomes 100 μg/mL
[2] = molecular target: nicotinic receptor (nAChR) found in C. dilutus; experiment: as above; type: binding, Chironomus dilutus; conditions: 1 nM [3H]IMI, pH 7.0, 20 °C, crude microsomes 100 μg/mL

`O=[N+]([O-])N=C1NCCN1Cc1ccc(Cl)nc1` [imidacloprid] showed an IC50 [1] of 8.86 nM and an IC50 [2] of 8.04 nM.
